Measurements as given in patent US7718768B2, “Biologically active peptide [sequence]” (CMS Peptides Patent Holding Company Limited, priority 2001, dated 2010).
Marks after values point to notes of the source that are not given here. No end group written: not given here.

Tests used:
[1] = system: NK cell; test: NK cell activity in mice with ascitic fluid type liver cancer H22; assay type: in vivo, BALB/c mice
Experimental: Healthy BALB/c mice were randomized into peptide group, rmIFN-γ group, rhIL-2 group, and saline group, 15 mice per group, and prepared into H22 carrying mice model as described in section Method 3. After implantation of the cancer cells, the test substances were administered for 15 days, the mice were killed by cervical dislocation. The spleen was isolated aseptically and manually dispersed in cold D-Hank's solution using an injection needle. The dispersed cell suspension was further sieved through a 100-gauge 150 μm diameter stainless steel sieve. After centrifugation at 200 g for 10 minutes, the supernatant was discarded. The cell pellet was re-suspended in 10 volume of Tris-NH4Cl buffer and then kept standing still for 10 minutes at room temperature. The suspended cells were collected by centrifugation at 150 g for 10 minutes. The cells were washed 2-4 times with cold D-Hank's solution by re-suspending and collecting by centrifugation with condition as described above. The washed cells were then diluted to the desired cell densities by RPMI-1640 culture medium, containing 10% fetal bovine serum.
Mice spleen cells were prepared to 4×10^6/ml as described in section 4.1 above. Target cells YAC-1 were brought to log phase and adjusted to 1×10^5/ml. Using a 96 wells cell culture plate, 100 μl mouse spleen cells and 100 μl culture medium were added to the control well containing only the spleen cells; 100 μl target cells and 100 μl culture medium were added to the control well containing only target cells; 100 μl mouse spleen cells and 100 μl target cells were added to the NK activity assay well. Three parallel sets of the above were prepared per mouse. After that, the 96 wells cell culture plates were incubated for 4 hrs at 37° C., 5% CO2.
Samples were centrifuged at 150 g for 10 minutes to collect the cells. The supernatant was discarded and 50 μl/well MTT of 1 mg/ml was added. The reaction-mixture was then shaken for 2 minutes, and incubated at 37° C., 5% CO2 for 4 hours. The supernatant was discarded after centrifugation at 150 g for 10 minutes. 120 μl 40 mM HCl-2-propanol was added and shaken for 3 minutes. An ELISA reader was used to obtain OD570nm of each well referenced at 630 nm.
The NK cell activity index of each mouse was obtained by first deriving the average OD of the three parallel wells of each combination, then applying this average OD to the following formula: NK cell activity index=[1−(average OD of spleen and target cell well−average OD of spleen cell only well)÷(average OD of target cell only well)]×100% 5. The Effect of Peptides on the Survival of DBA/2 Mice with Transplanted L1210 Leukemia

[2] = system: B16 melanoma cells; test: lung metastasis foci of inoculated B16 melanoma cells, postmortem examination; assay type: in vivo, C57BL/6 mice
Experimental: Intraperitoneal injection, once per day. […] Treatment of all groups with testing substance lasted for 30 days or until the animal died unless otherwise specified. […] The cell concentration was adjusted to 1×10^5 per ml with Hank's solution and 0.1 ml of the cell suspension was injected via the tail vein into the testing mice to generate the B16 melanoma bearing animal model. Treatment with test substance started as described in section Method 1. […] Postmortum Examination of the Animals was Performed. The Pathological Changes were Recorded, and the Numbers of Melanoma Lung Metastasis Foci were Counted. Results 1. The Effect of Peptide on the Cellular Phagocytosis in BALB/c Mice with Transplanted S180 Sarcoma (Method 2.1)

[3] = system: ascitic fluid type liver cancer H22; test: survival of mice with transplanted ascitic fluid type liver cancer H22; assay type: in vivo, BALB/c mice; details: for Survival index: versus saline group
Experimental: (§1) Intraperitoneal injection, once per day. […] Treatment of all groups with testing substance lasted for 30 days or until the animal died unless otherwise specified.
Stock H22 cells were incubated in DMEM/F12 medium supplemented with 10% fetal bovine serum, 37° C./5% CO2 for 72 hrs, then washed 3-4 times with Hank's solution at room temperature. Adjust cell concentration to 1-2×10^9 per liter with Hank's solution. 0.2 ml of the cell suspension was implanted to the abdominal cavity of several BALB/c mice for 6-8 days. The mice were killed by cervical vertebra dislocation. Ascitic fluid of the mice was collected asceptically and the cell concentration adjusted to 1×10^6 per ml with Hank's solution. 0.2 ml of the cell suspension was implanted into the abdominal cavity of healthy mice to generate the H22 carrying mouse model for ascitic fluid type liver cancer. Administration of test substance started as described in section Method 1. Survival data of the mice was recorded. If the animal survived longer than the experiment, the survival days was recorded as the duration of the experiment. Mean survival day was obtained by the Kaplan-meier method in the Survival option of the SPSS software. The survival index was calculated according to the following formula: Survival index(mean survival days in treatment group−mean survival days of control group)÷mean survival days of control group×100% 4. The Effect of Peptides on the Cellular Immunity of BALB/c Mice with Transplanted Ascitic Fluid Type Liver Cancer H22 4.1 Preparation of Spleen Cell Suspension^[1,4]

[4] = system: mononuclear phagocyte; test: phagocytosis index in mice with transplanted S180 sarcoma; assay type: in vivo, BALB/c mice
Experimental: as §1
(§2) Stock S180 sarcoma cells were incubated in DMEM/F12 medium supplemented with 10% fetal bovine serum, 37° C., 5% CO2 for 72 hrs, then washed 3-4 times with Hank's solution at room temperature. Adjust the cell concentration to 1-2×10^9 per liter with Hank's solution. […] The mice were killed by cervical vertebra dislocation. Vigorously growing and non-disrupted tumor masses were harvested and washed clean with sterile saline. The tissue was dispersed in saline to a homogenous cell suspension, in a ratio of 1 g tissue to 4 ml saline. The sarcoma bearing mice model was prepared with an injection of 0.2 ml cell suspension through the armpit. Administration of test substance treatment started as described in section Method 1.
2.1 The effect of peptides on the phagocytotic function of mononuclear phagocyte in mice with S180 sarcoma was analyzed by injecting mice from the tail vein with 0.1 ml/10 g body weight of Indian ink (1:5 dilution with normal saline) on the second day after the last test substance administration. At one minute and five minutes after the injection, 20 μl blood was obtained from the eye canthus with heparinised tubing. The blood was mixed with 2 ml 0.1% w/v Na2CO3 and then OD680nm obtained. The outline clear index K was calculated by the following formula: K=(lgA1−lgA2)÷(t2−t1)
(§3) After the phagocytosis index study, the mice were killed by cervical vertebra dislocation. The liver, spleen, and cancer tissue were dissected, blotted dry, and weighed.
1. The Phagocytosis Index α was Calculated as Below: α=(^3√K)×(W÷WLS)

[5] = system: S180 sarcoma cells; test: growth of transplanted S180 sarcoma; assay type: in vivo, BALB/c mice; details: for Tumor inhibition index: versus saline group
Experimental: as §1, §2, §3
2.2 The Tumor Growth Inhibition Index was Calculated According to the Following Formula: Tumor growth inhibition index=(mean tumor weight of control group−mean tumor weight of treatment group)÷mean tumor weight of control group 3.

[6] = 3 × 10^5 IU/kg i.p. once per day

FNFVPP [CMS003]
NK activity index ([1]; 500 μg/kg i.p. once per day): 37.9 ± 14.5*^^$ %

IGMESAGIHETTY [CMS016]
B16 metastatic foci in the lung, postmortem examination ([2]; 5 μg/kg/day i.p.): did not show any sign of existence of B16 metastatic foci in the lung | B16 metastatic foci in the lung, postmortem examination ([2]; 500 μg/kg/day i.p.): did not show any sign of existence of B16 metastatic foci in the lung

KAVGHLDDLPGAL [CMS008]
Survival days ([3]; 5 μg/kg i.p. once per day): 50.7 ± 20.9*^& days | Survival index ([3]; 5 μg/kg i.p. once per day): 67.8% | B16 metastatic foci in the lung, postmortem examination ([2]; 0.5 μg/kg/day i.p.): did not show any sign of existence of B16 metastatic foci in the lung | B16 metastatic foci in the lung, postmortem examination ([2]; 5 μg/kg/day i.p.): did not show any sign of existence of B16 metastatic foci in the lung | B16 metastatic foci in the lung, postmortem examination ([2]; 50 μg/kg/day i.p.): did not show any sign of existence of B16 metastatic foci in the lung

PTTKTYFPHF [CMS001]
Phagocytosis index ([4]; 5 μg/kg i.p. once per day): 6.67 ± 0.43*^ | Phagocytosis index ([4]; 50 μg/kg i.p. once per day): 6.24 ± 0.33*^

Phe Glu Glu Glu (FEEE; listed as Sus scrofa) [CMS032]
NK activity index ([1]; 5 μg/kg i.p. once per day): 52.6 ± 12.5*^^$& % | NK activity index ([1]; 50 μg/kg i.p. once per day): 41.0 ± 18.7*^^$& % | Survival days ([3]; 0.5 μg/kg i.p. once per day): 42.8 ± 12.2*^^&$ days | Survival index ([3]; 0.5 μg/kg i.p. once per day): 63.3%

Phe Val Asn Asp (FVND; listed as Sus scrofa) [CMS035]
Tumor weight ([5]; 5 μg/kg i.p. once per day): 0.71 ± 0.37 g | Tumor inhibition index ([5]; 5 μg/kg i.p. once per day): 44.6%

Pro Glu Asn Phe (PENF; listed as Sus scrofa) [CMS034]
NK activity index ([1]; 50 μg/kg i.p. once per day): 57.3 ± 17.9*^^$& % | Phagocytosis index ([4]; 0.5 μg/kg i.p. once per day): 6.35 ± 1.02 | Phagocytosis index ([4]; 5 μg/kg i.p. once per day): 6.20 ± 0.44*^ | Tumor weight ([5]; 0.5 μg/kg i.p. once per day): 0.83 ± 0.48 g | Tumor inhibition index ([5]; 0.5 μg/kg i.p. once per day): 35.9%

RVAPEEHPTL [CMS011]
Survival days ([3]; 5 μg/kg i.p. once per day): 36.4 ± 22.2*^& days | Survival index ([3]; 5 μg/kg i.p. once per day): 60.2%

Tyr Ser Leu (YSL; listed as Sus scrofa) [CMS024]
NK activity index ([1]; 0.5 μg/kg i.p. once per day): 39.3 ± 18.7*^$ % | NK activity index ([1]; 5 μg/kg i.p. once per day): 34.9 ± 12.1*^^$ % | NK activity index ([1]; 50 μg/kg i.p. once per day): 43.6 ± 13.9*^^$& % | Survival days ([3]; 0.5 μg/kg i.p. once per day): 46.4 ± 14.8*^^&$ days | Survival index ([3]; 0.5 μg/kg i.p. once per day): 76.9% | postmortem examination of the long-surviving mice ([3]; 0.5 μg/kg/day): did not show sign of tumor establishment | share of mice surviving longer than 90 days ([3]; 0.5 μg/kg/day, n=6, two months after the experiment ended): more than 30% | Survival days ([3]; 5 μg/kg i.p. once per day): 40.6 ± 14.6*^&$ days | Survival index ([3]; 5 μg/kg i.p. once per day): 54.8% | Survival days ([3]; 50 μg/kg i.p. once per day): 36.3 ± 12.7*^&$ days | Survival index ([3]; 50 μg/kg i.p. once per day): 38.4%

VAPEEHPTLLTEAPLNPK [CMS010]
Tumor weight ([5]; 500 μg/kg i.p. once per day): 0.67 ± 0.35 g | Tumor inhibition index ([5]; 500 μg/kg i.p. once per day): 48.4%

B1: IFN-γ: recombinant mouse interferon-γ, Beijing Biotech Inc.; positive control immunostimulant (protein, UniProt P01580 23-155, looked up)
Interferon gamma: HGTVIESLESLNNYFNSSGIDVEEKSLFLDIWRNWQKDGDMKILQSQIISFYLRLFEVLKDNQAISNNISVIESHLITTFFSNSKAKKDAFMSIAKFEVNNPQVQRQAFNELIRVVHQLLPESSLRKRKRSRC
NK activity index [1, 6]: 20.9 ± 3.3% | Phagocytosis index [4, 6]: 5.45 ± 0.71 | Survival days [3, 6]: 27.8 ± 7.5 days | Survival index [3, 6]: 6.1% | Tumor weight [5, 6]: 0.96 ± 0.45 g | Tumor inhibition index [5, 6]: 25.3%
